Here are results for four compounds from ChEMBL document CHEMBL3044688, “Degradation of the Herbicides Thiobencarb, Butachlor and Molinate by a Newly Isolated Aspergillus niger” (J Pestic Sci, 2004).

Holding throughout (type): ADME, organism-based
Data set [1] has as its system Aspergillus niger. Description: Drug degradation in Aspergillus niger van Tieghem grown on sucrose-containing Czapek-Dox medium at 100 ppm after 7 days. The note with it: 168 h.
Data set [2] concerns Aspergillus niger. Description: Drug degradation in Aspergillus niger van Tieghem grown on Czapek-Dox medium at 20 ppm after 36 hr at 30 degC in presence of 1 g/l NaNO3.
The subject of data set [3] is Aspergillus niger. The data set can be described thus: Drug degradation in Aspergillus niger van Tieghem at 20 ppm after 36 hr at 30 degC.
For data set [4], the system named is Aspergillus niger. Description: Drug degradation in Aspergillus niger van Tieghem grown on Czapek-Dox medium at 20 ppm after 36 hr at 30 degC in presence of 0.5 to 2 g/l NaNO3.
The subject of data set [5] is Aspergillus niger. Description: Drug degradation in Aspergillus niger van Tieghem grown on Czapek-Dox medium at 20 ppm after 36 hr at 30 degC in presence of 0.01 g/l NaNO3.
For data set [6], the system named is Aspergillus niger. Description: Drug degradation in Aspergillus niger van Tieghem grown on sucrose-containing Czapek-Dox medium at 20 ppm after 7 days. The note with it: 168 h.

For the compound `CCNc1nc(NC(C)C)nc(SC)n1` [AMETRYNE], the Stability entry in the data set on Aspergillus niger [1] is given as “Stable”.

As to `CCN(CC)C(=O)SCc1ccc(Cl)cc1` [THIOBENCARB], the Stability entry in the data set with Aspergillus niger [2], with Aspergillus niger [3], in the data set with Aspergillus niger [4] and with Aspergillus niger [5] was “Unstable” each time.

For `CCCCOCN(C(=O)CCl)c1c(CC)cccc1CC` [BUTACHLOR], the Stability result with Aspergillus niger [6] was “Unstable”. Turning to `CCSC(=O)N1C=CC=CC=C1` [S-ETHYLAZEPINE-1-CARBOTHIOATE], the Stability entry in the data set on Aspergillus niger [1] is reported as “Unstable”.
